The values that follow come from US20220332764A1, “T CELL EPITOPES OF HCMV AND USES OF THEREOF” (EBERHARD KARLS UNIVERSITÄT TÜBINGEN, priority 2019, published 2022).

One experiment concerns HLA. Particulars: Table 2, preferred dominant epitopes.
Experiment [1] has as its system CD8+ / CD4+ T cells of donor PBMCs. The experiment can be described thus: Intracellular cytokine staining (ICS; IFNγ, TNFα, CD107a). The class given is cell-based, human. Conditions: for Intracellular staining: responding T-cell subset; for Intracellular cytokine staining: responding T-cell subset after peptide stimulation. The text has this: PHA was used as positive control. […] (Cytofix/Cytoperm, BD Biosciences).

The subject of experiment [2] is PBMCs of healthy HCMV-seropositive donors. Description: ex vivo IFNγ ELISpot without prestimulation. The class given is cell-based, human. Particulars: for % Positive donors (ex vivo): IFNγ ELISpot ex vivo, donors previously tested positive; for ELISpot response rate (ex vivo): donors positively tested in ELISpots with 12d stimulation. The source says:
(§1) PHA was used as positive control.

For experiment [3] the test system is unchanged. Description: IFNγ ELISpot after 12 day stimulation (memory T-cell response). The class given is cell-based, human. Conditions: for % Positive donors (after 12 days of stimulation): IFNγ ELISpot, HLA-matched seropositive donors; for ELISpot response rate (12 d stim.): 12-day amplification with IL-2 in vitro; for Positive donors as tested: positive / tested HLA-matched seropositive donors, positive: >10 spots/well and at least 3-fold negative control.
Excerpt: as §1

Experiment [4] relates to CD8+ T cells of HLA-matched healthy donors. Conditions: for Tetramer-staining: after 12 day amplification.

Read-outs that look alike come from different tables or passages of the source.

As to “GLFAVENFL (listed as Human cytomegalovirus) [SEQ ID NO: 4]”, in the experiment with HLA, the “actual HLA restriction” value is reported as “Class II”. In experiment [1] (Tested HLA A*02:01), the Intracellular staining entry is listed as “CD4”. The Intracellular cytokine staining entry in experiment [1] is reported as “CD4”. Further, in experiment [2], the “% Positive donors (ex vivo)” value is recorded as 0.0%. In addition, the “ELISpot response rate (ex vivo)” value in experiment [2] (Tested HLA A*02:01) turned out to be 0.0. Also, in experiment [3], the “% Positive donors (after 12 days of stimulation)” value worked out at 53.9% and the “Positive donors as tested” value was 7/13. Also, the “ELISpot response rate (12 d stim.)” value in experiment [3] (Tested HLA A*02:01) amounted to 53.9.

On to “RTDPATLTAY (listed as Human cytomegalovirus) [SEQ ID NO: 53]”, for which, in experiment [4] (Tested HLA A*01:01), the Tetramer staining entry is “positive”. Moreover, the Tetramer-staining result in experiment [4] is “Positive”. The Intracellular staining entry in experiment [1] (Tested HLA A*01:01) is “CD8”. The Intracellular cytokine staining result in experiment [1] was “CD8”. Also, in experiment [2], the “% Positive donors (ex vivo)” value is given as 66.7%. For the same sequence, the “ELISpot response rate (ex vivo)” value in experiment [2] (Tested HLA A*01:01) came out at 66.7. Moreover, in experiment [3], the “% Positive donors (after 12 days of stimulation)” value worked out at 82.6% and the “Positive donors as tested” value is 19/23. The “ELISpot response rate (12 d stim.)” value in experiment [3] (Tested HLA A*01:01) stood at 82.6.

In the case of “RVKNRPIYR (listed as Human cytomegalovirus) [SEQ ID NO: 68]”, in experiment [4] (Tested HLA A*03:01), the Tetramer staining entry is given as “positive”. Besides, in experiment [4], the Tetramer-staining result is given as “Positive”. Further, in experiment [1] (Tested HLA A*03:01), the Intracellular staining result was “CD8”. Further, the Intracellular cytokine staining result in experiment [1] is listed as “CD8”. For the same sequence, the “% Positive donors (ex vivo)” value in experiment [2] came out at 33.3%. The “ELISpot response rate (ex vivo)” value in experiment [2] (Tested HLA A*03:01) is 33.3. Also, in experiment [3], the “% Positive donors (after 12 days of stimulation)” value came to 60.9% and the “Positive donors as tested” value is 14/23. Further, in experiment [3] (Tested HLA A*03:01), the “ELISpot response rate (12 d stim.)” value was 60.9.

For the sequence “SENGNLQVTY (listed as Human cytomegalovirus) [SEQ ID NO: 40]”, the Tetramer staining entry in experiment [4] (Tested HLA B*44:02) is reported as “positive”. Besides, the Tetramer-staining entry in experiment [4] was “Positive”. Further, the Intracellular staining result in experiment [1] (Tested HLA B*44:02) is reported as “CD8”. Further, in experiment [1], the Intracellular cytokine staining result is reported as “CD8”. Besides, in experiment [2], the “% Positive donors (ex vivo)” value is 62.5%. In experiment [2] (Tested HLA B*44:02), the “ELISpot response rate (ex vivo)” value turned out to be 62.5. Also, in experiment [3], the “% Positive donors (after 12 days of stimulation)” value was determined as 83.9% and the “Positive donors as tested” value was 26/31. The “ELISpot response rate (12 d stim.)” value in experiment [3] (Tested HLA B*44:02) was determined as 83.9.

“SESEFIVRY (listed as Human cytomegalovirus) [SEQ ID NO: 43]”: in experiment [4], the Tetramer-staining result is reported as “Positive”. Further, in experiment [1], the Intracellular cytokine staining entry is “CD8”. In addition, the “% Positive donors (ex vivo)” value in experiment [2] amounted to 37.5%. Besides, in experiment [3], the “% Positive donors (after 12 days of stimulation)” value stood at 40.0% and the “Positive donors as tested” value was 8/20.

As for “SPRDAWIVL (listed as Human cytomegalovirus) [SEQ ID NO: 26]”, in experiment [4] (Tested HLA B*07:02), the Tetramer staining result is “positive”. The Tetramer-staining entry in experiment [4] is given as “Positive”. Moreover, in experiment [1] (Tested HLA B*07:02), the Intracellular staining entry is “CD8”. For the same sequence, the Intracellular cytokine staining result in experiment [1] is “CD8”. For the same sequence, in experiment [2], the “% Positive donors (ex vivo)” value amounted to 20.0%. Besides, in experiment [2] (Tested HLA B*07:02), the “ELISpot response rate (ex vivo)” value is on record as 20.0. Also, in experiment [3], the “% Positive donors (after 12 days of stimulation)” value is listed as 68.2% and the “Positive donors as tested” value is reported as 15/22. For the same sequence, the “ELISpot response rate (12 d stim.)” value in experiment [3] (Tested HLA B*07:02) is 68.2.

In the case of “SPRHLYISL (listed as Human cytomegalovirus) [SEQ ID NO: 29]”, the Tetramer staining entry in experiment [4] (Tested HLA B*07:02) is “positive”. Moreover, in experiment [4], the Tetramer-staining result is “Positive”. For the same sequence, in experiment [1], the Intracellular cytokine staining entry is given as “CD4/CD8”. Also, the “% Positive donors (ex vivo)” value in experiment [2] was 0.0%. Besides, the “ELISpot response rate (ex vivo)” value in experiment [2] (Tested HLA B*07:02) was 0.0. Moreover, in experiment [3], the “% Positive donors (after 12 days of stimulation)” value is 50.0% and the “Positive donors as tested” value is 11/22. Besides, in experiment [3] (Tested HLA B*07:02), the “ELISpot response rate (12 d stim.)” value amounted to 50.0.

As to “SPSRDRFVQL (listed as Human cytomegalovirus) [SEQ ID NO: 27]”, the Tetramer staining entry in experiment [4] (Tested HLA B*07:02) is on record as “positive”. The Tetramer-staining entry in experiment [4] is “Positive”. Moreover, in experiment [1], the Intracellular cytokine staining entry is given as “Nega-”. In addition, the “% Positive donors (ex vivo)” value in experiment [2] is 33.3%. For the same sequence, in experiment [2] (Tested HLA B*07:02), the “ELISpot response rate (ex vivo)” value is given as 33.3. In addition, in experiment [3], the “% Positive donors (after 12 days of stimulation)” value was 66.7% and the “Positive donors as tested” value is on record as 14/21. The “ELISpot response rate (12 d stim.)” value in experiment [3] (Tested HLA B*07:02) is given as 66.7.

With “TLIVNLVEV (listed as Human cytomegalovirus) [SEQ ID NO: 3]”, the Tetramer staining entry in experiment [4] (Tested HLA A*02:01) is “positive”. The Tetramer-staining result in experiment [4] is reported as “Positive”. Besides, the Intracellular staining result in experiment [1] (Tested HLA A*02:01) is “CD8”. The Intracellular cytokine staining entry in experiment [1] is reported as “CD8”. The “% Positive donors (ex vivo)” value in experiment [2] was determined as 25.0%. For the same sequence, the “ELISpot response rate (ex vivo)” value in experiment [2] (Tested HLA A*02:01) is reported as 25.0. In experiment [3], the “% Positive donors (after 12 days of stimulation)” value is recorded as 55.0% and the “Positive donors as tested” value is reported as 11/20. Besides, the “ELISpot response rate (12 d stim.)” value in experiment [3] (Tested HLA A*02:01) turned out to be 55.0.

In the case of “TPRVTGGGAM (listed as Human cytomegalovirus) [SEQ ID NO: 25]”, the Tetramer staining result in experiment [4] (Tested HLA B*07:02) was “positive”. Further, the Tetramer-staining result in experiment [4] was “Positive”. Besides, the Intracellular staining result in experiment [1] (Tested HLA B*07:02) is “CD8”. Besides, the Intracellular cytokine staining result in experiment [1] is reported as “CD8”. In addition, the “% Positive donors (ex vivo)” value in experiment [2] is 100.0%. The “ELISpot response rate (ex vivo)” value in experiment [2] (Tested HLA B*07:02) was found to be 100.0. Besides, in experiment [3], the “% Positive donors (after 12 days of stimulation)” value was found to be 81.6% and the “Positive donors as tested” value is recorded as 31/38. The “ELISpot response rate (12 d stim.)” value in experiment [3] (Tested HLA B*07:02) was found to be 81.6.

As to “YADPFFLKY (listed as Human cytomegalovirus) [SEQ ID NO: 51]”, the Tetramer staining entry in experiment [4] (Tested HLA A*01:01) is “positive”. Also, the Tetramer-staining result in experiment [4] is recorded as “Positive”. Besides, the Intracellular staining result in experiment [1] (Tested HLA A*01:01) was “CD8”. Moreover, the Intracellular cytokine staining entry in experiment [1] is “CD8”. Also, the “% Positive donors (ex vivo)” value in experiment [2] was determined as 90.9%. Also, in experiment [2] (Tested HLA A*01:01), the “ELISpot response rate (ex vivo)” value came out at 90.9. Besides, in experiment [3], the “% Positive donors (after 12 days of stimulation)” value worked out at 100.0% and the “Positive donors as tested” value is reported as 15/15. In experiment [3] (Tested HLA A*01:01), the “ELISpot response rate (12 d stim.)” value is listed as 100.0.

Turning to “YLVRRPMTI (listed as Human cytomegalovirus) [SEQ ID NO: 80]”, in experiment [4] (Tested HLA B*08:01), the Tetramer staining result was “positive”. Further, the Tetramer-staining entry in experiment [4] is “Positive”. In addition, in experiment [1], the Intracellular cytokine staining result is listed as “Nega-”. Further, the “% Positive donors (ex vivo)” value in experiment [2] came to 33.3%. Also, the “ELISpot response rate (ex vivo)” value in experiment [2] (Tested HLA B*08:01) is reported as 33.3. Further, in experiment [3], the “% Positive donors (after 12 days of stimulation)” value came out at 50.0% and the “Positive donors as tested” value was 11/22. Further, the “ELISpot response rate (12 d stim.)” value in experiment [3] (Tested HLA B*08:01) is 50.0.

Take “YPRPPGSGL (listed as Human cytomegalovirus) [SEQ ID NO: 24]”: in experiment [4] (Tested HLA B*07:02), the Tetramer staining result is “positive”. Besides, the Tetramer-staining entry in experiment [4] is on record as “Positive”. For the same sequence, the Intracellular cytokine staining result in experiment [1] is listed as “Nega-”. In experiment [2], the “% Positive donors (ex vivo)” value worked out at 25.0%. The “ELISpot response rate (ex vivo)” value in experiment [2] (Tested HLA B*07:02) was determined as 25.0. Besides, in experiment [3], the “% Positive donors (after 12 days of stimulation)” value came to 86.4% and the “Positive donors as tested” value is listed as 19/22. For the same sequence, the “ELISpot response rate (12 d stim.)” value in experiment [3] (Tested HLA B*07:02) worked out at 86.4.
